Here are results for 2 compounds from patent US20250375422A1, “METHOD FOR TREATING CANCERS” (Acura Nanomedicine Corporation, priority 2019, published 2025).

The data set concerns BxPC-3 cells. Kind of data set: MTT assay, cell viability of pancreatic cancer BxPC-3 cells. In kind it is cell-based, human. Here is the method:
Cell lines used in the present disclosure include human pancreatic cancer cell lines BxPC-3, Mia-Paca-2/R (gemcitabine resistant cell line), and Panc-1/R (gemcitabine resistant cell line); human liver cancer cell lines SK-Hep-1 and Hep 3B; and human brain glioblastoma cell line GBM8401, which is a TMZ-resistant cell line. Cells were cultured in Dulbecco's modified Eagle media (DMEM) supplemented with 10% heat inactivated fetal bovine serum (FBS), 50 units/mL penicillin G, 50 μg/mL streptomycin (pH 7.4), and the cells were maintained in humidified environment comprising 5% CO2/95% air at 37° C.
The absorbance of the solution at 570 nm was measured by spectrophotometer.
A general note: Formazan colour is commonly taken as a measure of viable cells.

As for `CCN(CCO)CCCC(C)Nc1ccnc2cc(Cl)ccc12` (centres unmarked) [HCQ, hydroxychloroquine], under “HCQ (20 or 50 μM) alone”, the “cell viability of BxPC-3 cells” value is on record as “slightly and/or unaffected”.

For orientation: viability means the share of living cells, or the viability signal relative to a control. Read a high viability as less harm to the cells. As to `COC(=O)Nc1nc2ccc(C(=O)c3ccccc3)cc2[nH]1` [MBZ, mebendazole], the viability at 5 µM (Homo sapiens, BXPC-3, MBZ (5 μM)) is ~60%.
